Results taken from ChEMBL document CHEMBL3046263, “Isolation, characterization, antibacterial, antihelminthic, and in silico studies of polyprenol from Kirganelia reticulata Baill” (2013).
≈ marks a conversion by molar mass, not a printed value.

Tests used:
Format in all cases: functional
Metaphire posthuma [1] = test: Antihelminthic activity against Pheretima posthuma assessed as death time at 50 mg/ml (reference value: 198.33 +/-2.61 min)
Metaphire posthuma [2] = test: Antihelminthic activity against Pheretima posthuma assessed as paralysis time at 50 mg/ml (reference value: 63.33 +/-0.87 min)
Pseudomonas aeruginosa [3] = test: Antibacterial activity against Pseudomonas aeruginosa after 24 hr by microbroth dilution method
Pseudomonas aeruginosa [4] = test: Antibacterial activity against Pseudomonas aeruginosa assessed as diameter of growth inhibition zone at 100 mg/ml after 24 hr by agar well diffusion method; conditions: read-out: DIZ
Escherichia coli [5] = test: Antibacterial activity against Escherichia coli after 24 hr by microbroth dilution method
Salmonella typhi [6] = test: Antibacterial activity against Salmonella enterica subsp. enterica serovar Typhi assessed as diameter of growth inhibition zone at 100 mg/ml after 24 hr by agar well diffusion method; conditions: read-out: DIZ
Salmonella typhi [7] = test: Antibacterial activity against Salmonella enterica subsp. enterica serovar Typhi assessed after 24 hr by microbroth dilution method
Staphylococcus aureus [8] = test: Antibacterial activity against Staphylococcus aureus assessed as diameter of growth inhibition zone at 100 mg/ml after 24 hr by agar well diffusion method; conditions: read-out: DIZ
Staphylococcus aureus [9] = test: Antibacterial activity against Staphylococcus aureus after 24 hr by microbroth dilution method
Escherichia coli [10] = test: Antibacterial activity against Escherichia coli assessed as diameter of growth inhibition zone at 100 mg/ml after 24 hr by agar well diffusion method; conditions: read-out: DIZ
Metaphire posthuma [11] = test: Antihelminthic activity against Pheretima posthuma assessed as death time at 200 mg/ml (reference value: 198.33 +/-2.61 min)
Metaphire posthuma [12] = test: Antihelminthic activity against Pheretima posthuma assessed as paralysis time at 150 mg/ml (reference value: 63.33 +/-0.87 min)
Metaphire posthuma [13] = test: Antihelminthic activity against Pheretima posthuma assessed as paralysis time at 200 mg/ml (reference value: 63.33 +/-0.87 min)
Metaphire posthuma [14] = test: Antihelminthic activity against Pheretima posthuma assessed as death time at 100 mg/ml (reference value: 198.33 +/-2.61 min)
Metaphire posthuma [15] = test: Antihelminthic activity against Pheretima posthuma assessed as paralysis time at 100 mg/ml (reference value: 63.33 +/-0.87 min)
Metaphire posthuma [16] = test: Antihelminthic activity against Pheretima posthuma assessed as death time at 150 mg/ml (reference value: 198.33 +/-2.61 min)

| Structure (SMILES) | Time (Metaphire posthuma [1]) [min] | Time (Metaphire posthuma [2]) [min] | MBC (Pseudomonas aeruginosa [3]) [µg/mL] | zone of inhibition at 100000 µg/mL (Pseudomonas aeruginosa [4]) [mm] | MBC (Escherichia coli [5]) [µg/mL] | zone of inhibition at 100000 µg/mL (Salmonella typhi [6]) [mm] | MBC (Salmonella typhi [7]) [µg/mL] | MIC (Salmonella typhi [7]) [µg/mL] | zone of inhibition at 100000 µg/mL (Staphylococcus aureus [8]) [mm] | MBC (Staphylococcus aureus [9]) [µg/mL] | zone of inhibition at 100000 µg/mL (Escherichia coli [10]) [mm] | MIC (Pseudomonas aeruginosa [3]) [µg/mL] | Time (Metaphire posthuma [11]) [min] | Time (Metaphire posthuma [12]) [min] | MIC (Escherichia coli [5]) [µg/mL] | Time (Metaphire posthuma [13]) [min] | Time (Metaphire posthuma [14]) [min] | Time (Metaphire posthuma [15]) [min] | Time (Metaphire posthuma [16]) [min] | MIC (Staphylococcus aureus [9]) [µg/mL] |
| --- | --- | --- | --- | --- | --- | --- | --- | --- | --- | --- | --- | --- | --- | --- | --- | --- | --- | --- | --- | --- |
| C1CNCCN1.C1CNCCN1.C1CNCCN1.O.O=C(O)CC(O)(CC(=O)O)C(=O)O.O=C(O)CC(O)(CC(=O)O)C(=O)O [PIPERAZINE CITRATE] | 40.72 | 32.44 |  |  |  |  |  |  |  |  |  |  |  |  |  |  |  |  |  |  |
| O=C(O)c1cn(C2CC2)c2cc(N3CCNCC3)c(F)cc2c1=O [CIPROFLOXACIN] |  |  | 6.25 (≈ 18.9 µM) | 31.8 | 12.5 (≈ 37.7 µM) | 29 | 6.25 (≈ 18.9 µM) | 3.12 (≈ 9.43 µM) | 18.1 | 12.5 (≈ 37.7 µM) | 10.2 |  |  |  |  |  |  |  |  |  |
| C/C(=C/CC/C=C/CO)CC/C=C(/C)CC/C=C(\C)CO [POLYPRENOL] | 81.7 | 51.57 | 12.5 (≈ 42.7 µM) | 14.7 | 25 (≈ 85.5 µM) | 13.1 | 12.5 (≈ 42.7 µM) | 6.25 (≈ 21.4 µM) | 9.1 | 25 (≈ 85.5 µM) | 5.6 | 6.25 (≈ 21.4 µM) | 44.47 | 39.63 | 12.5 (≈ 42.7 µM) | 36.17 | 55.13 | 43.37 | 48.5 | 12.5 (≈ 42.7 µM) |
